system: not given; test: not given; conditions: not given

SMILES	melting point
CCCCOCCOc1ccc(-c2ccc(N3CCC4(C3)OCCO4)c(/C=C(\C)C(=O)Nc3ccc([S@@+]([O-])Cc4cncn4CCC)cc3)c2)cc1 [Compound 37, (S)-(2E)-3-[4′-(2-butoxyethoxy)-4-(1,4-dioxa-7-azaspiro[4.4]non-7-yl)-1,1′-biphenyl-3-yl]-2-methyl-N-[4-[[(1-propyl-1H-imidazol-5-yl)methyl]sulfinyl]phenyl]acrylamide]	139.5 to 140.5 °C
CCCCOCCOc1ccc(-c2ccc(N3CCC(C(=O)O)C3)c(/C=C(\C)C(=O)Nc3ccc([S@@+]([O-])Cc4cncn4CCC)cc3)c2)cc1 (some centres unmarked) [Compound 41, (Ss)-(2E)-3-[4′-(2-butoxyethoxy)-4-(3-carboxypyrrolidin-1-yl)-1,1′-biphenyl-3-yl]-2-methyl-N-[4-[[(1-propyl-1H-imidazol-5-yl)methyl]sulfinyl]phenyl]acrylamide]	184 to 186 °C
CCCCOCCOc1ccc(-c2ccc(N3CCC(C(=O)NC)C3)c(/C=C(\C)C(=O)Nc3ccc([S@@+]([O-])Cc4cncn4CCC)cc3)c2)cc1 (some centres unmarked) [Compound 44, (Ss)-(2E)-3-[4′-(2-butoxyethoxy)-4-[3-(methylaminocarbonyl)pyrrolidin-1-yl]-1,1′-biphenyl-3-yl]-2-methyl-N-[4-[[(1-propyl-1H-imidazol-5-yl)methyl]sulfinyl]phenyl]acrylamide]	127 to 128.5 °C
CCCCOCCOc1ccc(-c2ccc(N3CCC(C(=O)N(C)C)C3)c(/C=C(\C)C(=O)Nc3ccc([S@@+]([O-])Cc4cncn4CCC)cc3)c2)cc1 (some centres unmarked) [Compound 45, (Ss)-(2E)-3-[4′-(2-butoxyethoxy)-4-[3-(dimethylaminocarbonyl)pyrrolidin-1-yl]-1,1′-biphenyl-3-yl]-2-methyl-N-[4-[[(1-propyl-1H-imidazol-5-yl)methyl]sulfinyl]phenyl]acrylamide]	151 to 152 °C

target: T1, human CCR5 (Homo sapiens, UniProt P51681); test: Inhibition of [125I]-RANTES binding to CCR5/CHO cells (CCR5 antagonist activity); conditions: 40 min, test compound 1 μM, [125I]-RANTES 100 pM, CCR5/CHO strains, room temperature, read-out: Binding Inhibitory Ratio (%)
T1 construct: expressed in transfected cells
T1 sequence (P51681 whole entry): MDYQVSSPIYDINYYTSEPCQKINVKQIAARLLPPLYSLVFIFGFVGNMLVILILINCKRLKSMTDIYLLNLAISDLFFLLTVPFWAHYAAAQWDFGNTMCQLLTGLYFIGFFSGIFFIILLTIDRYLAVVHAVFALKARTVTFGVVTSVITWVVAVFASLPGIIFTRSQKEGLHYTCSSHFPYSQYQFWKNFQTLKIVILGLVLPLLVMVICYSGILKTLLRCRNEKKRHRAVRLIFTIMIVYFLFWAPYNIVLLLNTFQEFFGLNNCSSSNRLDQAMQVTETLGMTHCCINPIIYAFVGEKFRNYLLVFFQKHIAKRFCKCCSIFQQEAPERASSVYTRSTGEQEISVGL
Description: Cloning of a CCR5 gene was conducted from human spleen cDNA by a PCR method. Using 0.5 ng of spleen cDNA (Toyobo Co., Ltd., QUICK-Clone cDNA) as a template, the PCR reaction was carried out in a DNA Thermal Cycler 480 (Perkin Elmer) using a TaKaRa EX Taq (Takara Shuzo Co., Ltd.) (reaction conditions: 30 cycles of treatments at 95° C. for 1 minute, at 60° C. for 1 minute, and at 75° C. for 5 minutes) by adding 25 pmol of primers, SEQ ID NO. 1 (sequence length: 34; sequence type: nucleic acid; number of chains: a single chain; topology: linear; sequence kind: other nucleic acid, synthetic DNA) described in Experimental Example (1) of WO 99/32100, and SEQ ID NO. 2 (sequence length: 34; sequence type: nucleic acid; number of chains: a single chain; topology: linear; sequence kind: other nucleic acid, synthetic DNA) described in Experimental Example (1) of WO 99/32100, respectively, which were prepared by referring to the base sequence of the CCR5 gene described by Samson et al. (Biochemistry 35 (11), 3362-3367 (1996)). The PCR products were subjected to agarose gel electrophoresis to collect DNA fragments of about 1.0 kb. Then, the CCR5 gene was cloned using an Original TA Cloning Kit (Funakoshi Co., Ltd.).
The plasmids obtained above were digested with restriction enzymes XbaI (Takara Shuzo Co., Ltd.) and BamHI (Takara Shuzo Co., Ltd.), and subjected to agarose gel electrophoresis to collect DNA fragments of about 1.0 kb. The DNA fragments and a plasmid pcDNA3.1 (Funakoshi Co., Ltd.) for expression in animal cells, which was previously digested with XbaI and BamHI, were mixed and ligated by DNA Ligation Kit Ver.2 (Takara Shuzo Co., Ltd.). Transformation of E. coli JM109 competent cells (Takara Shuzo Co., Ltd.) gave plasmid pCKR5.
CHO-K1 cells grown in a 750 ml tissue culture flask (Becton Dickinson) using Ham's F12 medium (Nihon Pharmaceutical Co., Ltd.) containing 10% fetal bovine serum (Lifetech Oriental) were collected from the flask by using 0.5 g/L trypsin-0.2 g/L EDTA (Lifetech Oriental). The cells were then washed with PBS (Lifetech Oriental), centrifuged (1000 rpm, 5 minutes), and suspended in PBS. Next, DNA was introduced into the cells using Gene Pulser (Bio-Rad Laboratories Inc.) under the following conditions. Namely, 8×10^6 cells and 10 μg of plasmid pCKR5 for expression of human CCR5 were added into a cuvette of a 0.4 cm-gap, and electroporation was carried out at an electric voltage of 0.25 kV and a capacitance of 960 μF. Subsequently, the cells were transferred into Ham's F12 medium containing 10% fetal bovine serum, and incubated for 24 hours. The cells were again collected, centrifuged, and then suspended in Ham's F12 medium containing 10% fetal bovine serum and Geneticin (Lifetech Oriental) at a concentration of 500 μg/ml. The suspension of cells was diluted to a concentration of 10^4 cells/ml, and inoculated on a 96-well plate (Becton Dickinson) to give Geneticin-resistant strains.
Subsequently, the Geneticin-resistant strains were cultured in the 96-well plate (Becton Dickinson), and then CCR5-expressing cells were selected from the resistant strains. Namely, an assay buffer (Ham's F12 medium containing 0.5% BSA, and 20 mM HEPES (Wako Pure Chemical Industries, Ltd., pH 7.2)) containing 200 pM [^125I]-RANTES (Amersham) as a ligand was added to each well and the binding reaction was carried out at room temperature for 40 minutes. Each well plate containing the cells was washed with ice-cooled PBS, and then to each well was added 1 M NaOH in an amount of 50 μl/well, which was stirred. The cells to which the ligand bound specifically, i.e., CCR5/CHO strains, were selected by measurement of radioactivity by γ-counter.
The CCR5/CHO strains were inoculated on a 96-well microplate at a concentration of 5×10^4 cells/well, respectively and were cultured for 24 hours. […]

SMILES	inhibition at 1 µM
CCCCOCCOc1ccc(-c2ccc(N3CCC(C(=O)O)C3)c(/C=C(\C)C(=O)Nc3ccc([S@@+]([O-])Cc4cncn4CCC)cc3)c2)cc1 (some centres unmarked) [Compound 41, (Ss)-(2E)-3-[4′-(2-butoxyethoxy)-4-(3-carboxypyrrolidin-1-yl)-1,1′-biphenyl-3-yl]-2-methyl-N-[4-[[(1-propyl-1H-imidazol-5-yl)methyl]sulfinyl]phenyl]acrylamide]	100%
CCCCOCCOc1ccc(-c2cnc(N3CCC(CO)C3)c(/C=C(\C)C(=O)Nc3ccc([S@@+]([O-])Cc4cncn4CCC)cc3)c2)cc1 (some centres unmarked) [Compound 50, (Ss)-(2E)-3-[5-[4-(2-butoxyethoxy)phenyl]-2-[3-(hydroxymethyl)pyrrolidin-1-yl]pyridin-3-yl]-2-methyl-N-[4-[[(1-propyl-1H-imidazol-5-yl)methyl]sulfinyl]phenyl]acrylamide]	100%
CCCCOCCOc1ccc(-c2ccc(N3CCC(CC(=O)OCC)C3)c(/C=C(\C)C(=O)Nc3ccc([S@@+]([O-])Cc4cncn4CCC)cc3)c2)cc1 (some centres unmarked) [Compound 61, (Ss)-(2E)-3-[4′-(2-butoxyethoxy)-4-[3-(2-ethoxy-2-oxoethyl)pyrrolidin-1-yl]-1,1′-biphenyl-3-yl]-2-methyl-N-(4-[[(1-propyl-1H-imidazol-5-yl)methyl]sulfinyl]phenyl]acrylamide]	94%
CCCCOCCOc1ccc(-c2ccc(N3CCC(CC(=O)O)C3)c(/C=C(\C)C(=O)Nc3ccc([S@@+]([O-])Cc4cncn4CCC)cc3)c2)cc1 (some centres unmarked) [Compound 62, (Ss)-(2E)-3-[4′-(2-butoxyethoxy)-4-[3-(carboxymethyl)pyrrolidin-1-yl]-1,1′-biphenyl-3-yl]-2-methyl-N-[4-[[(1-propyl-1H-imidazol-5-yl)methyl]sulfinyl]phenyl]acrylamide]	100%

Reference: patent publication US20060160864A1, “Acrylamide derivative, process for producing the same, and use” (priority 2003, published 2006)
